# Measurements reported in patent publication US7632952B2, “Benzothiazoles and the use thereof as medicaments” (Aventis Pharma S.A., priority 2004, dated 2009).
# pIC50: −log10 of the molar value. Structures can show the parent of a compound that is named as a salt. Where two headings read alike, the source gives them in different places.
# How the values were obtained:
# CDK4/cyclin D1 = CDK4/cyclin D1 (Homo sapiens, UniProt P11802); assay: CDK4/cyclin D1 Flashplate test in 96-well format; assay type: biochemical
# CDK4/cyclin D1, sequence (P11802 whole entry): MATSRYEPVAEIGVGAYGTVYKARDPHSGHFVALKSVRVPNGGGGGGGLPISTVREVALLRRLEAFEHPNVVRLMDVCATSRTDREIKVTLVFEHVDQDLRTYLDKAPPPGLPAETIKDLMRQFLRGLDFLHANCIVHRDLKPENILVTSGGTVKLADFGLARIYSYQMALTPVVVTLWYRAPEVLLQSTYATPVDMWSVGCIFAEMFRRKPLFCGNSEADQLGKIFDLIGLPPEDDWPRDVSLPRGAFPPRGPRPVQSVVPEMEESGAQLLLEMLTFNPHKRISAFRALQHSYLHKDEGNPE
# CDK4/cyclin D1, sequence (P24385 whole entry partner): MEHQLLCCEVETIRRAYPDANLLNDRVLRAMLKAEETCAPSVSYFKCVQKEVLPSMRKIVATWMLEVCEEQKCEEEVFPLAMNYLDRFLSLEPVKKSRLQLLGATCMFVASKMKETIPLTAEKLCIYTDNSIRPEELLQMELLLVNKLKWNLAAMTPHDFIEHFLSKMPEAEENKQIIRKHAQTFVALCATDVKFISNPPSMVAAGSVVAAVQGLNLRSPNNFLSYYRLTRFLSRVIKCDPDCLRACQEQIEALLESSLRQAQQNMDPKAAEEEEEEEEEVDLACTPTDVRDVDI
# Protocol: 2. CDK4/cyclin D1 Protocol:
# Purification of the CDK4-HA/cyclin D1-(His)6 Complex by IMAC (Immobilized Metal Affinity Chromatography):
# Two recombinant baculoviruses bearing the human sequences coding, respectively, for CDK4-HA (C-terminal fusion with the hemaglutinin tag) and for cyclin D1-(His)6 are used to coinfect insect Sf9 cells. Sixty hours after the start of the coinfection, the cells are harvested by centrifugation and then frozen at −20° C. until the time of use.
# CDK4/cyclin D1 Flashplate Test in 96-Well Format
# A test in 96-well “Flashplate” plates coated with streptavidin is used to evaluate the inhibition of the CDK4/cyclin D1 kinase complex by the products of the invention. To perform this test, the biotinylated peptide substrate, a fragment of the pRb protein (biotinyl-[…]-amide) is dissolved at a concentration of 2 mM in kinase buffer (HEPES/NaOH 50 mM, NaCl 1 mM, MgCl2 5 mM, pH 7.5) in order to constitute a stock solution stored at −20° C. in the form of 110 μl aliquots. On the day of the experiment, an aliquot of this solution is thawed and diluted in kinase buffer containing 1 mM of dithiothreitol, and added to the buffer extemporaneously, in order to obtain a final peptide concentration of 2.571 μM. 70 μl of this solution are added to each well of the Flashplate in order to obtain a final substrate concentration of 1.8 μM during the enzymatic reaction, performed in a final volume of the reaction medium of 100 μl (cf. below). Intermediate dilutions of inhibitors (products of the invention) at various concentrations are prepared in DMSO from stock solutions at 10 mM in separate tubes. 1000 μM, 333.3 μM, 111.1 μM, 37.03 μM, 12.35 μM, 4.11 μM and 1.37 μM dilutions are thus prepared. 1 μl of each of these solutions (or 1 μl of DMSO for the controls) is then transferred into the wells of the test plate. Into each well are then added 19 μl of a solution of a mixture of adenosine triphosphate (ATP) and of ATPy^33P in the kinase buffer at a concentration of 5.26 μM of ATP total and 78.9 μCi/ml of ^33P. The enzymatic reaction is triggered by addition of 10 μl per well of a solution of CDK4/cyclin D1 at 250 nM in the kinase buffer containing 1 mM of dithiothreitol (or 10 μl of kinase buffer containing 1 mM of dithiothreitol for the reaction blanks).
# (§1) After addition of all the reagents, the test plate is incubated at 30° C. with orbital stirring at 650 rpm. After the incubation, the plate is washed three times with 300 μl per well of PBS (phosphate-buffered saline, pH=7.4, without calcium or magnesium, reference 10010-015, Gibco BRL). The incorporation of ^33P into the substrate peptide is quantified by scintillation counting using a Packard Topcount.NXT machine. The inhibitory activity of the products of the invention is evaluated by measuring the inhibitory concentration that allows a 50% reduction in the enzymatic activity (IC50).
# CDK2/cyclin E = CDK2/cyclin E (Homo sapiens, UniProt P24941); assay: CDK2/cyclin E Flashplate test in 96-well format; assay type: biochemical
# Protocol: 1. Protocol CDK2/cyclin E:
# Purification of the CDK2/cyclin E-(His)6 Complex by IMAC (Immobilized Metal Affinity Chromatography):
# Two recombinant baculoviruses bearing the human sequences coding, respectively, for CDK2 and cyclin E (the latter comprising a C-terminal hexahistidine tag) are used to coinfect insect Sf21 cells. Two to three days after the start of coinfection, the cells are harvested by centrifugation and then stored at −40° C. until the time of use. After thawing and mechanical lysis of the cells, the complex present in the lysis supernatant is purified by affinity chromatography on nickel (IMAC), and stored at −80° C.
# CDK2/cyclin E Flashplate Test in 96-Well Format
# A format in 96-well plates coated with streptavidin is used to test the activity of the compounds on the kinase activity of CDK2/cyclin E.
# To perform this test, the biotinylated peptide substrate, a fragment of the pRb protein (biotinyl-[…]-OH) is dissolved at a concentration of 1 mM in kinase buffer (HEPES/NaOH 50 mM, NaCl 1 mM, MgCl2 5 mM, pH 7.5) in order to constitute a stock solution stored at −20° C. in the form of 110 μl aliquots. On the day of the experiment, an aliquot of this solution is thawed and diluted in kinase buffer containing 1 mM of dithiothreitol, and added to the buffer extemporaneously, in order to obtain a concentration of 14.3 μM. 70 μl of this solution are added to each well of the Flashplate in order to obtain a final substrate concentration of 10 μM during the enzymatic reaction, performed in a final volume of the reaction medium of 100 μl (cf. below).
# Intermediate dilutions of inhibitors (products of the invention) at various concentrations are prepared in DMSO from stock solutions at 10 mM in separate tubes. 1000 μM, 333.3 μM, 111.1 μM, 37.03 μM, 12.35 μM, 4.11 μM and 1.37 μM dilutions are thus prepared. 1 μl of each of these solutions (or 1 μl of DMSO for the controls) is transferred into the wells of the test plate.
# Into each well are then added 19 μl of a solution of a mixture of adenosine triphosphate (ATP) and of ATPy^33P in the kinase buffer at a concentration of 5.26 μM of ATP total and 52.6 μCi/ml of ^33P. The enzymatic reaction is triggered by addition of 10 μl per well of a solution of CDK2/cyclin E at 200 nM in the kinase buffer containing 1 mM of dithiothreitol (or 10 μl of kinase buffer containing 1 mM of dithiothreitol for the reaction blanks).
# After addition of all the reagents, the plate is incubated at 30° C. with orbital stirring at 650 rpm.
# as §1, with “When” for “After addition of all”, “incubation” for “reagents, the test plate”, “complete,” for “incubated at 30° C. with orbital stirring at 650 rpm. After the incubation,”, “the” for “the substrate”
# HeLa = HeLa proliferation; assay type: cell-based; conditions: Homo sapiens, read-out: HeLa proliferation EC50 (nM) DG
Structure (SMILES),pIC50 (CDK4/cyclin D1),pIC50 (CDK2/cyclin E; read-out: CDK2 IC50),EC50 (HeLa),pIC50 (CDK2/cyclin E)
"CC(C)(O)CNc1ccc(S(=O)(=O)Oc2ccc3nc(NC(=O)C4CCNCC4)sc3c2)cc1 [Example 5, 4-(2-hydroxy-2-methylpropylamino)benzene-sulfonic acid 2-[(piperidine-4-carbonyl)amino]benzothiazol-6-yl ester]",5.40,6.00,,
"O=C(Nc1nc2ccc(OS(=O)(=O)c3ccc(F)cc3)cc2s1)C1CC1 [Example 7, 4-fluorobenzenesulfonic acid 2-(cyclopropane-carbonylamino)benzothiazol-6-yl ester]",< 5.00,6.91,1580 nM,
"O=C(Nc1nc2ccc(OS(=O)(=O)c3ccc(NC4CCCC4)cc3)cc2s1)C1CC1 [Example 8, 4-cyclopentylaminobenzenesulfonic 2-(cyclo-propanecarbonylamino)benzothiazol-6-yl ester]",6.05,7.07,631 nM,
"O=C(Nc1nc2ccc(OS(=O)(=O)c3ccc(NCCCCn4cnc(-c5cccnc5)c4)cc3)cc2s1)C1CC1 [Example 13, 4-[4-(4-pyrid-3-ylimidazol-1-yl)butylamino]-benzenesulfonic 2-(cyclopropanecarbonylamino)benzothiazol-6-yl ester]",5.16,6.17,841 nM,
"CC(C)NCCNc1ccc(S(=O)(=O)Oc2ccc3nc(NC(=O)CC4CCNCC4)sc3c2)cc1 [Example 18, 4-(2-isopropylaminoethylamino)benzenesulfonic acid 2-(2-piperid-4-ylacetylamino)benzothiazol-6-yl ester hydrochloride]",6.32,5.57,,
"O=C(CC1CCNCC1)Nc1nc2ccc(OS(=O)(=O)c3ccc(NCCCn4ccnc4)cc3)cc2s1 [Example 19a, 4-(3-Imidazol-1-ylpropyl-amino)benzenesulfonic acid 2-(2-piperid-4-ylacetyl-amino)benzothiazol-6-yl ester hydrochloride]",6.33,5.57,,
"CCNCCNc1ccc(S(=O)(=O)Oc2ccc3nc(NC(=O)CC4CCNCC4)sc3c2)cc1 [Example 19b, 4-(2-Ethylaminoethyl-amino)benzenesulfonic acid 2-(2-piperid-4-ylacetyl-amino)benzothiazol-6-yl ester hydrochloride]",6.14,5.26,,
"O=C(CC1CCNCC1)Nc1nc2ccc(OS(=O)(=O)c3ccc(NCCNCCO)cc3)cc2s1 [Example 19c, 4-[2-(2-Hydroxyethyl-amino)ethylamino]benzene-sulfonic acid 2-(2-piperid-4-ylacetylamino)benzo-thiazol-6-yl ester hydro-chloride]",5.91,5.24,,
"CC(C)N(CCNc1ccc(S(=O)(=O)Oc2ccc3nc(NC(=O)C4CNC4)sc3c2)cc1)C(C)C [Example 39, 4-(2-diisopropylaminoethylamino)benzenesulfonic acid 2-[(azetidine-3-carbonyl)amino]benzothiazol-6-yl ester]",5.63,5.51,,
"CC(C)N(CCNc1ccc(S(=O)(=O)Oc2ccc3nc(NC(=O)CC4CCNCC4)sc3c2)cc1)C(C)C [Example 42, 4-(2-diisopropylaminoethylamino)benzenesulfonic acid 2-(2-piperid-4-ylacetylamino)benzothiazol-6-yl ester]",6.69,5.94,,
"CC(C)(O)CNc1ccc(S(=O)(=O)Oc2ccc3nc(NC(=O)CCC4CCNCC4)sc3c2)cc1 [Example 84, 4-(2-hydroxy-2-methylpropylamino)benzene-sulfonic acid 2-(3-piperidin-4-ylpropionylamino)benzothiazol-6-yl ester hydrochloride]",6.17,6.66,,
"CC1(C)CC(Nc2ccc(S(=O)(=O)Oc3ccc4nc(NC(=O)C5CC5)sc4c3)cc2)CC(C)(C)N1[O] [Example 87, 4-(1-oxyl-2,2,6,6-tetramethylpiperidin-4-ylamino)-benzenesulfonic acid 2-(cyclopropanecarbonylamino)benzothiazol-6-yl ester]",,,,6.09

# Now from value to molecule, other results behind:
pIC50 (CDK4/cyclin D1),pIC50 (CDK2/cyclin E; read-out: CDK2 IC50),EC50 (HeLa),Structure (SMILES),pIC50 (CDK2/cyclin E)
6.11,6.26,,"CCNCCNc1ccc(S(=O)(=O)Oc2ccc3nc(NC(=O)CCCCCCCN)sc3c2)cc1 [Example 22b, 4-(2-ethylaminoethyl-amino)benzene sulfonic acid 2-(8-aminooctanoyl-amino)benzothiazol-6-yl ester]",
5.80,5.96,,"NCCCCCCCC(=O)Nc1nc2ccc(OS(=O)(=O)c3ccc(NCCNCCO)cc3)cc2s1 [Example 22c, 4-[2-(2-hydroxyethyl-amino)ethylamino]benzene-sulfonic acid 2-(8-amino-octanoylamino)benzo-thiazol-6-yl ester hydro-chloride]",
< 5.00,5.20,,"NCC(=O)Nc1nc2ccc(OS(=O)(=O)c3cccs3)cc2s1 [Example 33b, Thiophene-2-sulfonic acid 2-(2-amino-acetylamino)benzothiazol-6-yl ester; compound with trifluoroacetic acid]",
< 5.00,5.08,,"CNCC(=O)Nc1nc2ccc(OS(=O)(=O)c3cccs3)cc2s1 [Example 33c, Thiophene-2-sulfonic acid 2-(2-methylamino-acetylamino)benzothiazol-6-yl ester; compound with trifluoroacetic acid]",
5.08,5.53,,"NCCC(=O)Nc1nc2ccc(OS(=O)(=O)c3cccs3)cc2s1 [Example 33d, Thiophene-2-sulfonic acid 2-(3-amino-propionylamino)benzothiazol-6-yl ester; compound with trifluoroacetic acid]",
5.15,5.74,,"NCCCCCCCC(=O)Nc1nc2ccc(OS(=O)(=O)c3cccs3)cc2s1 [Example 33f, Thiophene-2-sulfonic acid 2-(8-amino-octanoylamino)benzothiazol-6-yl ester; compound with trifluoroacetic acid]",
